Experimental data taken from patent US20230218608A1, “NEW STRATEGY FOR TREATING PANCREATIC CANCER” (INSERM (INSTITUT NATIONAL DE LA SANTÉ ET DE LA RECHERCHE …, priority 2020, published 2023).

Tests used:
[1] = tested on: PDAC cells; experiment: Dose-response viability experiments (Crystal violet viability assay); format: cell-based, human; conditions: 72 h; for Relative cell viability, mean of the treated cells: compared to non-treated cells
Description: We used 21 PDAC primary cells obtained from Patient-Derived Xenografts (PDX) from the PaCaOmics cohort, in which patients were included under the Paoli-Calmettes Institute clinical trial number 2011-A01439-32. Consent forms of informed patients were collected and registered in a central database. PDAC cells were obtained and maintained in serum-free ductal media (SFDM) as described, and incubated at 37° C. in a 5% CO2 incubator. Cell lines were monthly tested for Mycoplasma contamination and found to be negative.
We tested the sensitivity of PDAC cells to three different drugs targeting the FAO pathway: Etomoxir, Perhexiline, and Trimetazidine (all provided by Sigma-Aldrich, Saint-Quentin Fallavier, France), and to the standard chemotherapy Gemcitabine (Gemzar, Eli Lilly & Co).
Cells were seeded in 96-well plates (5,000 cells per well) and 24 h later, the medium was supplemented with increasing concentrations of the drugs in triplicates. For the combination treatment, we used Perhexiline at 5 μM with increasing doses of Gemcitabine. Cell viability was determined 72 h later by Crystal violet viability assay, which is independent from cell metabolism. Briefly, cells were fixed in Glutaraldehyde 1%, washed twice with PBS, stained with crystal violet 0.1% for 10 min, and then washed three times with PBS. Crystals were solubilized in SDS 1%, and absorbance was measured at 600 nm using an Epoch-Biotek spectrophotometer.

[2] = tested on: PDAC032T xenograft; experiment: Subcutaneous PDAC xenograft, tumor growth; format: in vivo, mice; conditions: one month IP; Gemcitabine 120 mg/kg twice a week; low responder
Description: (§1) We assessed the FAO inhibition impact in vivo using the drug Perhexiline in combination with Gemcitabine. We performed subcutaneous xenografts in immunodeficient mice using four different primary PDAC cells. Recipient mice were 6-week-old female Swiss nude mice Crl:Nu(lco)-Foxn1nu purchased from Charles River, France. To obtain the xenografts, subcutaneous tumors from initial mouse donors were removed and finely minced with a scalpel. Then, 150 mg of tumor's pieces were mixed with 50 μl of Matrigel and implanted with a trocar (10 Gauge) in the subcutaneous space of anesthetized mice. Tumor volume was measured twice per week using a digital caliper and using the formula V=lenght×(width)/2. When tumor volume reached 200 mm^3, mice were randomly assigned in a treatment scheme:
(§2) a) Gemcitabine: 120 mg/kg twice a week
(§3) b) Perhexiline: 5 mg/kg every other day
(§4) c) Combination treatment: Gemcitabine plus Perhexiline with the same described indications
(§5) d) Vehicle: PBS in the case of Gemcitabine treatment controls and 3% DMSO in PBS for combination treatment controls.
(§6) Mice were treated by intraperitoneal injection during one month, and mice in which tumor volume reached 1.5 cm^3 during this period were ethically sacrificed and tumors removed.

[3] = tested on: PDAC012T xenograft; experiment: Subcutaneous PDAC xenograft, tumor growth; format: in vivo, mice; conditions: one month IP; Gemcitabine 120 mg/kg twice a week; intermediate responder
Description: as §1, §2, §3, §4, §5, §6

[4] = tested on: PDAC084T xenograft; experiment: Subcutaneous PDAC xenograft, tumor growth; format: in vivo, mice; conditions: one month IP; Gemcitabine 120 mg/kg twice a week, Perhexiline 5 mg/kg every other day; high responder
Description: as §1, §2, §3, §4, §5, §6

[5] = tested on: four PDAC cells; experiment: AnnexinV/PI apoptosis assay (flow cytometry); format: cell-based, human; conditions: Perhexiline 7 μM, 72 h
Description: Cells were seeded in 6-well plates in duplicates (150 000 cells per well) and the day after, the corresponding treatment was administered. We treated four PDAC cells with 7 μM of Perhexiline for 72 h (FIG. 5A), and in combination with 1 μM of Gemcitabine for 24 h for the PDAC084T cells. After the treatment period, cells were detached with Accutase, and resuspended in Annexin V-binding buffer (Biolegend). Cell death was determined using the Annexin V and Propidium Iodide (PI) staining (Biolegend), for apoptosis and necrosis, respectively. Ten thousand events per sample were acquired in a MAC SQuant-VYB (Miltenyi Biotec) and data analysis was done with the FlowJo software.

[6] = tested on: four PDAC xenografts; experiment: Subcutaneous PDAC xenografts, tumor growth (four models overall); format: in vivo, mice; conditions: Perhexiline 5 mg/kg IP every other day, one month
Description: as §1, §2, §3, §4, §5, §6

[7] = tested on: PDAC084T cells; experiment: Real-time metabolic analysis (Seahorse XF Cell Mito Stress Test); format: cell-based, human; conditions: Perhexiline 10 μM, 6 h
Description: We tested the impact of […], and the combination treatment (6 hours) on the mitochondrial respiration in PDAC084T cells. Measurements were performed using the Seahorse Bioscience XFe24 Extracellular Flux Analyzer (Agilent). Sixteen hours before the assay, cells at exponential growth were seeded into Seahorse 24-well plates and cultured at 37° C. with 5% CO2. Six hours before the assay, the media was replaced with vehicle DMSO (0.01%), Gemcitabine (1 μM), Perhexiline (10 μM), or the combination of the two drugs. After 6 h treatment, the media was replaced with OXPHOS assay medium (DMEM without phenol red [Sigma-Aldrich reference D5030], 143 mM NaCl, 2 mM glutamine, 1 mM sodium pyruvate and 10 mM glucose, pH 7.4) and the plate was pre-incubated for 1 h at 37° C. in a non-CO2 incubator. OCR was measured under basal conditions, and then after sequential injections of Oligomycin at 1 μM, carbonyl cyanide-p-trifluoromethox-[…]-hydrazon (FCCP, the concentration was optimized for each cell line), and 0.5 μM of Rotenone plus Antimycin A. Oligomycin is a respiratory Complex V inhibitor that allows to calculate ATP production by mitochondria, and FCCP is an uncoupling agent allowing the determination of the maximal respiration and the spare capacity. […]

COc1ccc(CN2CCNCC2)c(OC)c1OC [Trimetazidine]
Relative cell viability ([1]; Trimetazidine 62.5 μM, compared with non-treated cells): no effect in any cell

CCOC(=O)[C@@]1(CCCCCCOc2ccc(Cl)cc2)CO1 [Etomoxir]
Relative cell viability, mean of the treated cells ([1]; Etomoxir 62.5 μM): 0.75

Nc1ccn([C@@H]2O[C@H](CO)[C@@H](O)C2(F)F)c(=O)n1 [Gemcitabine]
Tumor growth [2]: induces tumor regression | Tumor growth [3]: arresting the tumor growth | Tumor growth [4]: arresting the tumor growth

C1CCC(C(CC2CCCCN2)C2CCCCC2)CC1 (stereo not shown) [Perhexiline]
Cell death (apoptosis induction) [5]: apoptotic inductor | Cell viability ([1]; Perhexiline 5 μM alone): no impacts cell viability | Relative cell viability, mean of the treated cells ([1]; Perhexiline 7 μM): 0.72 | Tumor growth compared with vehicle-injected mice [6]: doesn't have any impact on tumor growth | Decrease of mitochondrial respiration (OCR) [7]: about 50%
